In the NIST ThermoML archive (doi:10.1021/je501141e):

Experiment: xn = mol fraction of the nth substance listed
Settings: 100 kPa, Liquid; for viscosity: Concentric cylinders viscometry; for speed of sound: Frequency=200 MHz, Sing-around technique in a fixed-path interferometer; for mass density: Vibrating tube method

CC(CC(C)(C)C)CC(C)(C)CC(C)(C)C (stereo not drawn) [2,2,4,4,6,8,8-heptamethylnonane] + CC(CC(C)(C)C)CC(C)(C)C
Settings	mass density [kg/m3]	speed of sound [m/s]	viscosity [mPa·s]
333.15 K, x1 = 0.0772	719.94	1061.1	0.768
333.15 K, x1 = 0.1584	724.04	1069.5	0.822
333.15 K, x1 = 0.2439	728.14	1077.5	0.889
333.15 K, x1 = 0.334	732.28	1086.1	0.956
333.15 K, x1 = 0.4293	736.56	1095.1	1.04
333.15 K, x1 = 0.5302	740.68	1103.9	1.13
333.15 K, x1 = 0.6371	744.84	1112.9	1.23
333.15 K, x1 = 0.7506	749.18	1122.3	1.34
333.15 K, x1 = 0.8711	753.38	1131.6	1.48
333.15 K, x1 = 1	–	–	1.64
343.15 K, x1 = 0.0772	712.57	1025.2	0.676
343.15 K, x1 = 0.1584	716.73	1033.7	0.721
343.15 K, x1 = 0.2439	720.9	1041.9	0.778
343.15 K, x1 = 0.334	725.11	1050.7	0.834
343.15 K, x1 = 0.4293	729.46	1059.8	0.906
343.15 K, x1 = 0.5302	733.65	1068.8	0.975
343.15 K, x1 = 0.6371	737.87	1077.9	1.06
343.15 K, x1 = 0.7506	742.28	1087.5	1.15
343.15 K, x1 = 0.8711	746.55	1096.9	1.26
343.15 K, x1 = 1	–	–	1.39
353.15 K, x1 = 0.0772	705	–	0.6
353.15 K, x1 = 0.1584	709.3	–	0.638
353.15 K, x1 = 0.2439	713.4	–	0.687
353.15 K, x1 = 0.334	717.7	–	0.734
353.15 K, x1 = 0.4293	722.1	–	0.794
353.15 K, x1 = 0.5302	726.4	–	0.852
353.15 K, x1 = 0.6371	730.8	–	0.923
353.15 K, x1 = 0.7506	735.1	–	0.998
353.15 K, x1 = 0.8711	739.5	–	1.09
353.15 K, x1 = 1	–	–	1.19
363.15 K, x1 = 0.0772	697.5	–	0.538
363.15 K, x1 = 0.1584	701.8	–	0.57
363.15 K, x1 = 0.2439	706.1	–	0.613
363.15 K, x1 = 0.334	710.4	–	0.653
363.15 K, x1 = 0.4293	714.8	–	0.704
363.15 K, x1 = 0.5302	719.2	–	0.753
363.15 K, x1 = 0.6371	723.7	–	0.813
363.15 K, x1 = 0.7506	728.1	–	0.88
363.15 K, x1 = 0.8711	732.5	–	0.954
363.15 K, x1 = 1	–	–	1.04
373.15 K, x1 = 0.0772	689.9	–	0.487
373.15 K, x1 = 0.1584	694.2	–	0.515
373.15 K, x1 = 0.2439	698.6	–	0.553
373.15 K, x1 = 0.334	703.1	–	0.586
373.15 K, x1 = 0.4293	707.5	–	0.63
373.15 K, x1 = 0.5302	712.1	–	0.673
373.15 K, x1 = 0.6371	716.7	–	0.723
373.15 K, x1 = 0.7506	721.1	–	0.78
373.15 K, x1 = 0.8711	725.6	–	0.841
373.15 K, x1 = 1	–	–	0.913
